System: HCV 1b-377-neo replicon cells
Experiment: HCV replicon assay (HCV 1b-377-neo replicon cells)
Assay type: cell-based, Hepatitis C virus genotype 1b
Settings: Hepatitis C virus, read-out: EC50 range against HCV 1b (Range)
Procedure: An HCV Replion assay was utilized in the present disclosure, and was prepared, conducted and validated as described in commonly owned PCT/US2006/022197 and in O'Boyle et. al. Antimicrob Agents Chemother. April 2005;49(4): 1346-53.
HCV 1b-377-neo replicon cells were used to test the currently described compound series as well as cells resistant to compound A due to a Y2065H mutation in NS5A (described in application PCT/US2006/022197). The compounds tested were determined to have more than 10-fold less inhibitory activity on cells resistant to compound A than wild-type cells indicating a related mechanism of action between the two compound series. Thus, the compounds of the present disclosure can be effective to inhibit the function of the HCV NS5A protein and are understood to be as effective in combinations as previously described in application PCT/US2006/022197 and commonly owned WO/04014852. Further, the compounds of the present disclosure can be effective against the HCV 1b genotype. It should also be understood that the compounds of the present disclosure can inhibit multiple genotypes of HCV. […] In one embodiment compounds of the present disclosure are active against the 1a, 1b, 2a, 2b, 3a, 4a, and 5a genotypes.

Row | SMILES | EC50 [nM]
1 | CC(=O)N[C@@H](C(=O)N1CCC[C@H]1c1ncc(-c2ccc(-c3ccc(-c4cnc([C@@H]5CCCN5C(=O)[C@H](NC(C)=O)c5ccccc5)[nH]4)cn3)cc2)[nH]1)c1ccccc1 [Example 139, N-((1R)-2-((2S)-2-(5-(6-(4-(2-((2S)-1-((2R)-2-acetamido-2-phenylacetyl)-2-pyrrolidinyl)-1H-imidazol-5-yl)phenyl)-3-pyridinyl)-1H-imidazol-2-yl)-1-pyrrolidinyl)-2-oxo-1-phenylethyl)acetamide] | 0.01 to 0.999
2 | COC(=O)N[C@@H](C(=O)N1CCC[C@H]1c1ncc(-c2ccc(-c3ncc(-c4cnc([C@@H]5CCCN5C(=O)[C@@H](c5ccccc5)N5CCCCC5)[nH]4)cn3)cc2)[nH]1)c1ccccc1 [Example 152l-3, methyl ((1R)-2-oxo-1-phe-nyl-2-((2S)-2-(4-(4-(5-(2-((2S)-1-((2R)-2-phenyl-2-(1-piperidinyl)acetyl)-2-pyrrolidinyl)-1H-imidazol-5-yl)-2-pyrimi-dinyl)phenyl)-1H-imidazol-2-yl)-1-pyrroli-dinyl)ethyl)carba-mate] | 0.01 to 0.999
3 | COC(=O)N[C@@H](C)C(=O)N1CCC[C@H]1c1nc(-c2cnc(-c3ccc(-c4cnc([C@@H]5CCCN5C(=O)[C@H](C)NC(=O)OC)[nH]4)cc3)nc2)c[nH]1 [Example D73, methyl ((1S)-2-((2S)-2-(5-(4-(5-(2-((2S)-1-(N-(methoxy-carbonyl)-L-alanyl)-2-pyrroli-dinyl)-1H-imida-zol-5-yl)-2-pyrimi-dinyl)phenyl)-1H-imidazol-2-yl)-1-pyrroli-dinyl)-1-methyl-2-oxoeth-yl)carbamate] | 0.01 to 0.999
4 | COC(=O)N[C@H](C(=O)N1CCC[C@H]1c1ncc(-c2ccc(-c3ccc(-c4cnc([C@@H]5CCCN5C(=O)[C@@H](Nc5ncccn5)C(C)C)[nH]4)cc3)cc2)[nH]1)C(C)C [cj-11, methyl((1S)-2-methyl-1-(((2S)-2-(5-(4′-(2-((2S)-1-(N-2-pyrimidinyl-L-valyl)-2-pyrrolidinyl)-1H-imidazol-5-yl)-4-biphenylyl)-1H-imidazol-2-yl)-1-pyrrolidinyl)carbonyl)propyl)carbamate] | 0.01 to 0.999
5 | CN(C)[C@@H](C(=O)N1CCC[C@H]1c1ncc(-c2cnc(-c3ncc(-c4cnc([C@@H]5CCCN5C(=O)[C@@H](c5ccccc5)N(C)C)[nH]4)cn3)nc2)[nH]1)c1ccccc1 [Example 153c-3, (1R,1′R)-2,2′-(2,2′-bipyrimi-dine-5,5′-diylbis(1H-imidazole-5,2-diyl (2S)-2,1-pyrrolidine-diyl))bis(N, N-dimeth-yl-2-oxo-1-phenyl-ethanamine)] | 1000 to 10000
6 | COC(=O)N[C@H](C(=O)N1CCC[C@H]1c1nc(-c2cnc(-c3ccc(-c4cnc([C@@H]5CCCN5C(=O)[C@@H](NC(=O)OC)C5CC5)[nH]4)cc3)nc2)c[nH]1)C1CC1 [Example D75, methyl ((1S)-1-cyclopropyl-2-((2S)-2-(5-(2-(4-(2-((2S)-1-((2S)-2-cyclopropyl-2-((methoxy-carbonyl)amino)ace-tyl)-2-pyrroli-dinyl)-1H-imidazol-5-yl)phenyl)-5-pyrimi-dinyl)-1H-imida-zol-2-yl)-1-pyrroli-dinyl)-2-oxoeth-yl)carbamate] | 0.01 to 0.999
7 | CCN(CC)[C@H](C)C(=O)N1CCC[C@H]1c1ncc(-c2cnc(-c3ccc(-c4[nH]c([C@@H]5CCCN5C(=O)[C@H](C)N(CC)CC)nc4C(F)(F)F)cc3)nc2)[nH]1 [Example J51, (2R)-1-((2S)-2-(5-(4-(5-(2-((2S)-1-((2R)-2-(diethyl-amino)prop-anoyl)-2-pyrrolidinyl)-1H-imidazol-5-yl)-2-pyrimi-dinyl)phenyl)-4-(trifluoromethyl)-1H-imida-zol-2-yl)-1-pyrrolidinyl)-N,N-dieth-yl-1-oxo-2-propanamine] | 1 to 99
8 | C[C@@H](c1ncc(-c2ccc(-c3ncc(-c4cnc([C@@H]5CCCN5C(=O)[C@@H](c5ccccc5)N(C)C)[nH]4)cn3)cc2)[nH]1)N(C)C(=O)[C@@H](c1ccccc1)N(C)C [Example 152j-20, (2R)-2-(dimethylamino)-N-((1S)-1-(5-(4-(5-(2-((2S)-1-((2R)-2-(dimethylamino)-2-phenylacetyl)-2-pyrrolidinyl)-1H-imidazol-5-yl)-2-pyrimidinyl)phenyl)-1H-imidazol-2-yl)ethyl)-N-methyl-2-phenylacetamide] | 1 to 99
9 | COC(=O)N[C@@H](C(=O)N1CCC[C@H]1c1ncc(-c2ccc(-c3ccc(-c4cnc([C@@H]5CCCN5C(=O)[C@H](NC(=O)OC)c5ccccc5)[nH]4)cn3)cc2)[nH]1)c1ccccc1 [Example 134, methyl ((1R)-2-((2S)-2-(5-(6-(4-(2-((2S)-1-((2R)-2-((methoxycarbonyl)amino)-2-phenylacetyl)-2-pyrrolidinyl)-1H-imidazol-5-yl)phenyl)-3-pyridinyl)-1H-imidazol-2-yl)-1-pyrrolidinyl)-2-oxo-1-phenylethyl)carbamate] | 0.01 to 0.999
10 | CCN(CC)[C@@H](C(=O)N1CCC[C@H]1c1ncc(-c2ccc(-c3ncc(-c4c[nH]c([C@@H]5CCCN5C(=O)[C@H](C)NC(=O)OC)n4)cn3)cc2)[nH]1)c1ccccc1 [Example D77, methyl ((1S)-2-((2S)-2-(5-(2-(4-(2-((2S)-1-((2R)-2-(diethyl-amino)-2-phenyl-acetyl)-2-pyrroli-dinyl)-1H-imidazol-5-yl)phenyl)-5-pyrimi-dinyl)-1H-imida-zol-2-yl)-1-pyrrolidinyl)-1-methyl-2-oxoeth-yl)carbamate] | 0.01 to 0.999
11 | COC(=O)N[C@@H](C)C(=O)N1CCC[C@H]1c1ncc(-c2cnc(-c3ccc(-c4[nH]c([C@@H]5CCCN5C(=O)[C@H](C)NC(=O)OC)nc4C(F)(F)F)cc3)nc2)[nH]1 [Example J50, methyl ((1S)-2-((2S)-2-(5-(4-(5-(2-((2S)-1-(N-(methoxy-carbonyl)-L-alanyl)-2-pyrrolidinyl)-1H-imidazol-5-yl)-2-pyrimi-dinyl)phenyl)-4-(trifluoromethyl)-1H-imida-zol-2-yl)-1-pyrrolidinyl)-1-methyl-2-oxoeth-yl)carbamate] | 0.01 to 0.999
12 | COC(=O)N[C@@H](C(=O)N[C@@H](C)c1ncc(-c2ccc(-c3ccc(-c4cnc([C@H](C)NC(=O)[C@H](NC(=O)OC)c5ccccc5)[nH]4)cn3)cc2)[nH]1)c1ccccc1 [Example 152j-23] | 0.01 to 0.999
13 | COC(=O)N[C@H](C(=O)N1CCCC1c1ncc(-c2cc(C)c(-c3c(C)cc(-c4cnc([C@@H]5CCCN5C(=O)[C@@H](NC(=O)OC)C(C)C)[nH]4)cc3C)c(C)c2)[nH]1)C(C)C (stereo partly drawn) [Example F71] | 0.01 to 0.999
14 | COC(=O)N[C@H](C(=O)N1CCC[C@H]1c1nc(-c2cnc(-c3ccc(-c4cnc([C@@H]5CCCN5C(=O)[C@@H](NC(=O)OC)C(C)C)[nH]4)cc3)nc2)c[nH]1)C(C)C [Example D74, methyl ((1S)-1-(((2S)-2-(5-(2-(4-(2-((2S)-1-((2S)-2-((methoxy-carbonyl)amino)-3-methyl-butanoyl)-2-pyrroli-dinyl)-1H-imidazol-5-yl)phenyl)-5-pyrimi-dinyl)-1H-imida-zol-2-yl)-1-pyrroli-dinyl)carbon-yl)-2-methylpro-pyl)carba-mate] | 0.01 to 0.999
15 | COC(=O)N[C@H](C(=O)N1CCC[C@H]1c1ncc(-c2ccc(-c3ccc(-c4cnc([C@@H]5CCCN5C(=O)[C@@H](NC(=NC#N)N(C)C)C(C)C)[nH]4)cc3)cc2)[nH]1)C(C)C [cj-17, methyl((1S)-1-(((2S)-2-(5-(4′-(2-((2S)-1-(N-(cyano(dimethyl)carbamimidoyl)-L-valyl)-2-pyrrolidinyl)-1H-imidazol-5-yl)-4-biphenylyl)-1H-imidazol-2-yl)-1-pyrrolidinyl)carbonyl)-2-methylpropyl)carbamate] | 0.01 to 0.999

From patent US7659270B2, “Hepatitis C virus inhibitors” (Bristol-Myers Squibb Company, priority 2006, dated 2010)
